From the supplement of paper PMC10307832

What was measured:
Experiment in all cases: relative viability (nuclei count vs DMSO), 5 days (fraction); higher = more cells survive
[1] = compound: O=C(O)c1ccc2c(c1)nc(Nc1cccc(Cl)c1)c1ccncc12 [Silmitasertib] + Cc1nc(NC(=O)N2CCC[C@H]2C(N)=O)sc1-c1ccnc(C(C)(C)C(F)(F)F)c1 [Alpelisib] (partner 2 µM)
Procedure, shortened: (§1)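 The day after seeding in 1536-well plates, lung cancer cell lines were treated by pin tool with a single drug, or with a fixed anchor-drug dose together with five library-drug doses (not always all listed) in √10 steps. After 5 days, a combined fix-and-stain solution (final 0.05% Triton X-100, 1% formaldehyde, 1 ug/ml Hoechst) was added. Nuclei counted on 4× images gave relative viability as treated counts over vehicle counts, reported as the median of duplicate plates.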

[2] = compound: O=C(O)c1ccc2c(c1)nc(Nc1cccc(Cl)c1)c1ccncc12 [Silmitasertib] + C[C@]1(O)C[C@@H](c2nc(-c3ccc4ccc(-c5ccccc5)nc4c3)c3c(N)nccn32)C1 [Linsitinib] (partner 1 µM)
Procedure, shortened: as §1

[3] = compound: O=C(O)c1ccc2c(c1)nc(Nc1cccc(Cl)c1)c1ccncc12 [Silmitasertib] + C[C@@H](Oc1cc(-c2cnn(C3CCNCC3)c2)cnc1N)c1c(Cl)ccc(F)c1Cl [Crizotinib] (partner 1 µM)
Procedure, shortened: as §1

[4] = compound: O=C(O)c1ccc2c(c1)nc(Nc1cccc(Cl)c1)c1ccncc12 [Silmitasertib] + CS(=O)(=O)N1CCN(Cc2cc3nc(-c4cccc5[nH]ncc45)nc(N4CCOCC4)c3s2)CC1 [Pictilisib] (partner 1 µM)
Procedure, shortened: as §1

[5] = compound: O=C(O)c1ccc2c(c1)nc(Nc1cccc(Cl)c1)c1ccncc12 [Silmitasertib] + CC(C)C[C@H](NC(=O)[C@H](Cc1ccccc1)NC(=O)c1cnccn1)B(O)O [Bortezomib] (partner 0.002 µM)
Procedure, shortened: as §1

| Cell Line | relative viability ([1]; first compound 0.04 µM) | relative viability ([1]; first compound 0.4 µM) | relative viability ([1]; first compound 1.265 µM) | relative viability ([1]; first compound 4 µM) | relative viability ([2]; first compound 0.04 µM) | relative viability ([2]; first compound 0.4 µM) | relative viability ([2]; first compound 1.265 µM) | relative viability ([2]; first compound 4 µM) | relative viability ([3]; first compound 0.04 µM) | relative viability ([3]; first compound 0.4 µM) | relative viability ([3]; first compound 1.265 µM) | relative viability ([3]; first compound 4 µM) | relative viability ([4]; first compound 0.04 µM) | relative viability ([4]; first compound 0.4 µM) | relative viability ([4]; first compound 1.265 µM) | relative viability ([4]; first compound 4 µM) | relative viability ([5]; first compound 0.04 µM) | relative viability ([5]; first compound 0.4 µM) | relative viability ([5]; first compound 1.265 µM) | relative viability ([5]; first compound 4 µM) |
| --- | --- | --- | --- | --- | --- | --- | --- | --- | --- | --- | --- | --- | --- | --- | --- | --- | --- | --- | --- | --- |
| SK-LU-1 | 1.09 | 0.836 | 0.413 | 0.27 | 1.22 | 0.987 | 0.688 | 0.297 | 1.2 | 0.714 | 0.502 | 0.315 | 0.685 | 0.448 | 0.359 | 0.212 | 1.33 | 0.735 | 0.801 | 0.394 |
| SW 1573 | 0.758 | 0.588 | 0.723 | 0.504 | 0.805 | 0.679 | 0.855 | 0.682 | 0.952 | 0.707 | 0.734 | 0.625 | 0.561 | 0.459 | 0.462 | 0.484 | 1.09 | 1.15 | 1.02 | 0.977 |
| UMC-11 | 1.03 | 0.994 | 1 | 0.627 | 1.04 | 1.08 | 1.1 | 0.678 | 0.604 | 0.683 | 0.56 | 0.324 | 0.992 | 0.903 | 0.652 | 0.436 | 0.679 | 0.588 | 0.65 | 0.542 |
